Inhibition data for 24 compounds are collected here from patent publication US8153795B2, “Substituted 1-oxa-3,8-diazaspiro[4.5]-decan-2-one-compounds and the use thereof for producing drugs” (Gruenenthal GmbH, priority 2005, dated 2012).

The structures appear in SMILES notation.

This experiment deals with T1, 5-HT transporter (Rattus norvegicus, UniProt P31652).
T1 construct: from tissue; host or cells: rat brain synaptosomes (P2 fraction) from medulla and pons
T1 sequence (P31652 whole entry): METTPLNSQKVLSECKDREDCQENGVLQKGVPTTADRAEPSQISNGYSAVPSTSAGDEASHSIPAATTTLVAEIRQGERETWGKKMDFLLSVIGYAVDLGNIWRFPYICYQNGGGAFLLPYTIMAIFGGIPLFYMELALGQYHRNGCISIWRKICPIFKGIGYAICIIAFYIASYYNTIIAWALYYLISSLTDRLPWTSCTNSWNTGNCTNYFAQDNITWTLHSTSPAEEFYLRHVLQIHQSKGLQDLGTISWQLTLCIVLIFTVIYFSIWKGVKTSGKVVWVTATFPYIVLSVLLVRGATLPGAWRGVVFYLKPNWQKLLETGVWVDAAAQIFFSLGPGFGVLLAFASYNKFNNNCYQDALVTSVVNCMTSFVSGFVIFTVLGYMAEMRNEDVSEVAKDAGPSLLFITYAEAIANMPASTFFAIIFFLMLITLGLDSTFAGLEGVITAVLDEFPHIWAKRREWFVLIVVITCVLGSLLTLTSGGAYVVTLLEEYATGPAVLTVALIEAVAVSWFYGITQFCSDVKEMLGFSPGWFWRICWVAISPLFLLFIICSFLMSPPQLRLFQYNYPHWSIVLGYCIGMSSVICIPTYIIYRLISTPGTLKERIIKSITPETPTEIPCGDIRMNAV
In words: 5-HT uptake inhibition in rat brain synaptosomes (medulla and pons), [3H]-5-HT. It is filed as biochemical. The source says:
a) Method for Determining Noradrenalin and 5-HT Uptake Inhibition:
Synaptosomes from rat brain regions are freshly isolated for in vitro studies, as described in the publication “The isolation of nerve endings from brain” by E. G. Gray and V. P. Whittaker, J. Anatomy 96, pages 79-88, 1962. The corresponding literature description is hereby introduced as a reference and is deemed to be part of the disclosure.
The tissue (hypothalamus for the determination of noradrenalin uptake inhibition and medulla and pons for the determination of 5-HT uptake inhibition) is homogenised in ice-cooled 0.32 M sucrose (100 mg of tissue/1 mL) in a glass homogeniser with Teflon pestle using five complete up and down strokes at 840 revolutions/minute.
The homogenate is centrifuged at 4° C. for 10 minutes at 1000 g. After subsequent centrifugation at 17000 g for 55 minutes, the synaptosomes (P2 fraction) are obtained, which are resuspended in 0.32 M […] (0.5 mL/100 mg of original weight).
The particular uptake is measured in a 96-well microtitre plate. The volume is 250 μl and the incubation proceeds at room temperature (approx. 20-25° C.) under an O2 atmosphere.
The incubation time is 7.5 minutes for [^3H]-NA and 5 minutes for [^3H]-5-HT. The 96 samples are then filtered through a Unifilter GF/B® microtitre plate (Packard) and washed with 200 mL of incubated buffer using a “Brabdel MPXRI-96T Cell-Harvester”. The Unifilter GF/B plate is dried for 1 hour at 55° C. The plate is then sealed with a Back Seal® (Packard) and 35 μl of scintillation fluid are added per well (Ultima Gold®, Packard). After sealing with a top Seal® (Packard) and establishing an equilibrium (around 5 hours), radioactivity is determined in a “Trilux 1450 Microbeta” (Wallac).
The quantity of protein used in the above determination corresponds to the values known from the literature, as for example described in “Protein measurement with the folin phenol reagent”, Lowry et al., J. Biol. Chem., 193, 265-275, 1951.
A detailed description of the method may additionally be found in the literature, for example in M. Ch. Frink, H.-H. Hennies, W. Engelberger, M. Haurand and B. Wilffert (1996) Arzneim.-Forsch./Drug Res. 46 (III), 11, 1029-1036.
Take `Cc1ccc(CN2CC3(CCN(C(=S)Nc4c(F)c(F)c(F)c(F)c4F)CC3)OC2=O)cc1` [Example 1, 3-(4-methylbenzyl)-2-oxo-1-oxa-3,8-diazaspiro[4.5]decane-8-carbothioic acid pentafluorophenylamide]: the inhibition at 10 µM is 66%. `O=C1OC2(CCN(C(=S)NCc3ccccc3)CC2)CN1Cc1ccc(C(F)(F)F)cc1` [Example 3, 2-oxo-3-(4-trifluoromethylbenzyl)-1-oxa-3,8-diazaspiro[4.5]decane-8-carbothioic acid benzylamide] had an inhibition at 10 µM of 69%.

`Cc1cc(C)cc(CN2CC3(CCN(C(=S)NCC4CCCO4)CC3)OC2=O)c1` (stereo not drawn) [Example 4, 3-(3,5-dimethylbenzyl)-2-oxo-1-oxa-3,8-diazaspiro[4.5]decane-8-carbothioic acid (tetrahydrofuran-2-ylmethyl)amide] gave an inhibition at 10 µM of 76%. Under `O=C1OC2(CCN(C(=S)NCc3ccccc3)CC2)CN1Cc1ccc(F)c(F)c1` [Example 11, 3-(3,4-difluorobenzyl)-2-oxo-1-oxa-3,8-diazaspiro[4.5]decane-8-carbothioic acid benzylamide] stands 58%. Compound `CC(NC(=S)N1CCC2(CC1)CN(Cc1ccccc1-c1ccccc1)C(=O)O2)c1ccccc1` (stereo not drawn) [Example 12, 3-biphenyl-2-ylmethyl-2-oxo-1-oxa-3,8-diazaspiro[4.5]decane-8-carbothioic acid (1-phenylethyl)amide] returned an inhibition at 10 µM of 60%. Next, `O=C1OC2(CCN(C(=S)NCc3ccccc3)CC2)CN1Cc1cccc(Br)c1` [Example 16, 3-(3-bromobenzyl)-2-oxo-1-oxa-3,8-diazaspiro[4.5]decane-8-carbothioic acid benzylamide]: 54%. As for `COc1ccc([N+](=O)[O-])cc1CN1CC2(CCN(C(=S)NCC3CCCCC3)CC2)OC1=O` [Example 21, 3-(2-methoxy-5-nitrobenzyl)-2-oxo-1-oxa-3,8-diazaspiro[4.5]decane-8-carbothioic acid cyclohexylmethylamide], testing at 10 µM gave an inhibition of 55%.

Take `N#Cc1cccc(CN2CC3(CCN(C(=S)NCc4ccc(Cl)cc4)CC3)OC2=O)c1` [Example 22, 3-(3-cyanobenzyl)-2-oxo-1-oxa-3,8-diazaspiro[4.5]decane-8-carbothioic acid 4-chlorobenzylamide]: the inhibition at 10 µM is 48%. Turning to `COc1ccc([N+](=O)[O-])cc1CN1CC2(CCN(C(=S)NCc3ccccc3)CC2)OC1=O` [Example 23, 3-(2-methoxy-5-nitrobenzyl)-2-oxo-1-oxa-3,8-diazaspiro[4.5]decane-8-carbothioic acid benzylamide], the inhibition at 10 µM was 60%. Next, `O=C(Nc1cc(Cl)ccc1Cl)N1CCC2(CC1)CN(Cc1ccccc1-c1ccccc1)C(=O)O2` [Example 25, 3-biphenyl-2-ylmethyl-2-oxo-1-oxa-3,8-diazaspiro[4.5]decane-8-carboxylic acid (2,5-dichlorophenyl)amide]: 53%; `COc1ccc([N+](=O)[O-])cc1CN1CC2(CCN(C(=O)Nc3cc(F)ccc3F)CC2)OC1=O` [Example 26, 3-(2-methoxy-5-nitrobenzyl)-2-oxo-1-oxa-3,8-diazaspiro[4.5]decane-8-carboxylic acid (2,5-difluorophenyl)amide]: 70%. Next, `CCOC(=O)c1ccc(NC(=O)N2CCC3(CC2)CN(Cc2ccc4ccccc4c2)C(=O)O3)cc1` [Example 30, 4-[(3-naphthalen-2-ylmethyl-2-oxo-1-oxa-3,8-diazaspiro[4.5]decane-8-carbonyl)amino]benzoic acid ethyl ester]: 65%; `N#Cc1ccccc1CN1CC2(CCN(C(=O)Nc3cc(F)ccc3F)CC2)OC1=O` [Example 32, 3-(2-cyanobenzyl)-2-oxo-1-oxa-3,8-diazaspiro[4.5]decane-8-carboxylic acid (2,5-difluorophenyl)amide]: 56%.

With `N#Cc1cccc(NC(=O)N2CCC3(CC2)CN(Cc2ccc(SC(F)(F)F)cc2)C(=O)O3)c1` [Example 38, 2-oxo-3-(4-trifluoromethylsulfanylbenzyl)-1-oxa-3,8-diazaspiro[4.5]decane-8-carboxylic acid (3-cyanophenyl)amide], 10 µM produced 52% inhibition. Next, `Cc1ccc(NC(=O)N2CCC3(CC2)CN(Cc2ccc(SC(F)(F)F)cc2)C(=O)O3)cc1[N+](=O)[O-]` [Example 40, 2-oxo-3-(4-trifluoromethylsulfanylbenzyl)-1-oxa-3,8-diazaspiro[4.5]decane-8-carboxylic acid (4-methyl-3-nitrophenyl)amide]: 54%; `CCCCOc1ccc(NC(=O)N2CCC3(CC2)CN(Cc2ccc(I)cc2)C(=O)O3)cc1` [Example 41, 3-(4-iodobenzyl)-2-oxo-1-oxa-3,8-diazaspiro[4.5]decane-8-carboxylic acid (4-butoxyphenyl)amide]: 49%. Next, `CC(NC(=O)N1CCC2(CC1)CN(Cc1ccccc1)C(=O)O2)c1ccccc1` (stereo not drawn) [Example 43, 3-benzyl-2-oxo-1-oxa-3,8-diazaspiro[4.5]decane-8-carboxylic acid (1-phenylethyl)amide]: 49%. `Cc1ccc(CN2CC3(CCN(C(=O)NCCc4ccccc4)CC3)OC2=O)cc1` [Example 45, 3-(4-methylbenzyl)-2-oxo-1-oxa-3,8-diazaspiro[4.5]decane-8-carboxylic acid phenethylamide] displayed an inhibition at 10 µM of 51%.

`COc1cccc(NC(=O)N2CCC3(CC2)CN(Cc2ccccc2C(F)(F)F)C(=O)O3)c1` [Example 46, 2-oxo-3-(2-trifluoromethylbenzyl)-1-oxa-3,8-diazaspiro[4.5]decane-8-carboxylic acid (3-methoxyphenyl)amide] displayed an inhibition at 10 µM of 43%.

In turn, `COc1ccc(NC(=O)N2CCC3(CC2)CN(Cc2ccc(C#N)cc2)C(=O)O3)cc1` [Example 47, 3-(4-cyanobenzyl)-2-oxo-1-oxa-3,8-diazaspiro[4.5]decane-8-carboxylic acid (4-methoxyphenyl)amide] came in with an inhibition at 10 µM of 49%. Next, `CC(NC(=O)N1CCC2(CC1)CN(Cc1ccc(C(F)(F)F)cc1)C(=O)O2)c1cccc2ccccc12` (stereo not drawn) [Example 48, 2-oxo-3-(4-trifluoromethylbenzyl)-1-oxa-3,8-diazaspiro[4.5]decane-8-carboxylic acid (1-naphthalen-1-yl-ethyl)amide]: 43%; `Cc1ccc(NC(=O)N2CCC3(CC2)CN(Cc2ccc(I)cc2)C(=O)O3)cc1[N+](=O)[O-]` [Example 50, 3-(4-iodobenzyl)-2-oxo-1-oxa-3,8-diazaspiro[4.5]decane-8-carboxylic acid (4-methyl-3-nitrophenyl)amide]: 64%; `COc1ccc([N+](=O)[O-])cc1CN1CC2(CCN(C(=O)Nc3cccc(C#N)c3)CC2)OC1=O` [Example 51, 3-(2-methoxy-5-nitrobenzyl)-2-oxo-1-oxa-3,8-diazaspiro[4.5]decane-8-carboxylic acid (3-cyanophenyl)amide]: 89%. Next, `CC(NC(=O)N1CCC2(CC1)CN(Cc1ccccc1C(F)(F)F)C(=O)O2)c1cccc2ccccc12` (stereo not drawn) [Example 54, 2-oxo-3-(2-trifluoromethylbenzyl)-1-oxa-3,8-diazaspiro[4.5]decane-8-carboxylic acid (1-naphthalen-1-yl-ethyl)amide]: 75%.

The inhibition is the relative decrease from the control value, in per cent. A high value points to strong suppression.
